Test results as given in US6482610B1, “Method for producing agents for treating tumor diseases and for immunosuppression” (Forschungszentrum Karlsruhe GmbH, priority 1998, dated 2002).
Read-outs that look alike come from different tables or passages of the source.

How the values were obtained:
[1] = system: cyclins D1, D2, D3 and E, cdks 2 and 4; assay: Western blot of G1-phase cyclins and cdks in 5 L cells; assay type: cell-based, rat; settings: 24-hour treatment, FIG. 2A
Procedure: (§1) After it had been found by introductory experiments that the effect of dioxin on the cell cycle required gene expression which was continuous and induced, experiments were carried out to investigate the Ah receptor-dependent, cell cycle-regulating genes by characterizing biochemical changes in the course of the cell cycle (Lees, E., Curr. Opin. Cell Biol. 7, 773 (1995); Morgan, D. O., Nature 374, 131 (1995). The levels of cyclins D and E, which are involved in the G1-S transition in the cell cycle, as well as their associated cyclin-dependent kinases (cdks 2 and 4), were not reduced by dioxin treatment (see FIG. 2A). […]
(§2) Biochemical properties of G1-phase cyclin/cdk complexes were analysed using 30-60%-confluent, asynchronous cell cultures which, apart from those in section E, had been subjected to a 24-hour treatment with TCDD or 0.1% of the DMSO solvent. The quantities of G1-phase cyclins D1, D2, D3 and E, and also cdks 2 and 4(A) were determined by Western blot in extracts which had been prepared by lysis using a mild detergent (Matsushime, H. et al. Mol. Cell Biol. 14, 2066 (1994)). Cyclin E-dependent histone H1 kinase activity (B) was measured in an immune complex kinase assay (Matsushime, loc. cit.) following precipitation with an anti-cyclin E antibody (lanes 1 and 2) or a corresponding anti-AP-2 antibody as the negative control (lanes 3 and 4). […]

5 L cells [2] = assay: Cell cycle distribution by flow cytometry in transfected 5 L cells; assay type: cell-based, rat
From the text: Genetic indications of a causal role for Kip1 induction in dioxin-induced cell cycle retardation were obtained by transiently expressing a Kip1 antisense RNA in order to inactivate Kip1. Coexpression of green fluorescent protein (GFP, Heim, A. B. et al., Nature 373, 663 (1997)) enabled flow cytometry to be used to detect efficiently transfected cells (FIG. 3A). […] When Kip1 antisense RNA was expressed together with GFP, the TCDD effect on cell cycle distribution was interrupted in the efficiently transfected subpopulation of cells (FIG. 3B, third row). In the non-transfected subpopulation from the same cell culture, TCDD retarded the progress of the cell cycle in the expected manner (FIG. 3B, last row). In this context, it is to be noted that the electroporation reduced sensitivity to dioxin such that the observed effects on the cell cycle were less pronounced than in non-transfected cells, for example 1.5-2-fold as compared with 3-4-fold in non-electroporated cells (Weiss, loc. cit.).
5 L cells were transiently cotransfected with expression vectors for a Kip1 antisence RNA and GFP (part B, lower panel) or with the empty expression vector and GFP (part B, upper panel). 32 h after the transfection, the cells were treated with 1 nM TCDD or 0.1% DMSO solvent, as the control, and harvested, for the analysis by flow cytometry 18 h later, using trypsin. (A) The GFP-expressing subpopulation of transfected cells (thick line) was identified by means of a high green fluorescence (GFP) as compared with untransfected cells (thin line). (B) Cell cycle profiles were determined by staining with H33258 and analysed individually for efficiently transfected (approx. 5%), green-fluorescing subpopulations (rows 1 and 3) and untransfected subpopulations (rows 2 and 4) in the presence of 1 nM TCDD (right-hand panels) or 0.1% DMSO solvent (left-hand panels).

thymocytes = assay: Thymocyte proliferation and cell cycle distribution in foetal thymus organ culture; assay type: cell-based, mice; settings: for % in G2/S: 2 days of culture, mean ± S.D., 3 experiments
From the text: (§3) An important target for dioxin toxicity is the thymus, which suffers an AhR-dependent atrophy (Poland, A. et al., Annu. Rev. Pharmacol. Toxicol. 22, 517 (1982); Fernandez-Salguero, P. et al., Science 268, 722 (1995)). Foetal thymus organ culture (FTOC) provides a useful model for studying dioxin activities (Lai, Z. W. et al., Mol. Pharmacol. 52, 30 (1997), and the literature references which are cited therein). After only 2 days of FTOC, a 3-fold induction of Kip1 protein was found in thymocytes which had been prepared from TCDD-treated cultures as compared with cultures which had only been exposed to the solvent (FIG. 4A). This was accompanied by a decrease in the proliferation of the thymocytes, as shown by a reduced incorporation of ^3H-thymidine into the thymocyte DNA (75±7%) and a drop, from 32±3% down to 24±1%, in the number of cells in the S and G2 phases of the cell cycle (a representative example from 3 similar experiments is shown in FIG. 4B). While the proliferation rate in all the early thymocyte subpopulations was reduced independently of the status of CD4 or CD8 expression (Table 1), the effect was more strongly pronounced in the predominantly immature, double negative subpopulation and in a small CD4low/+/CD8-subpopulation.
(§4) Foetal thymus glands from C57B16 mice were explanted after 14.5 days of pregnancy and cultured for 2 days in the presence of 1 nM TCDD or 0.1% DMSO solvent prior to preparing thymocytes. p27Kip1 protein (A) was determined by Western blot in 10^5 thymocytes. Uniform loading of the gel was ensured by probing the blots once again with an Erk1 antibody (one of three representative examples is shown). The cell cycle distribution of the total lymphocyte population (B) was determined by means of flow cytometry following DNA staining with H33258 bisbenzimide dye.
Thymocytes from foetal thymus glands were collected after 2 days of culture in the presence or absence of TCDD and analysed for their cell cycle distribution. The values are mean values±S.D. from 3 independent experiments.

p27Kip1 [3] = assay: p27Kip1 protein level by Western blot in 5 L cells and BP8 derivatives; assay type: cell-based, rat
Procedure: After it had been found by introductory experiments that the effect of dioxin on the cell cycle required gene expression which was continuous and induced, experiments were carried out to investigate the Ah receptor-dependent, cell cycle-regulating genes by characterizing biochemical changes in the course of the cell cycle (Lees, E., Curr. Opin. Cell Biol. 7, 773 (1995); Morgan, D. O., Nature 374, 131 (1995). The levels of cyclins D and E, which are involved in the G1-S transition in the cell cycle, as well as their associated cyclin-dependent kinases (cdks 2 and 4), were not reduced by dioxin treatment (see FIG. 2A). The levels of cyclins D2 and D3 were even raised, presumably because the cells are frozen in a state which is per se associated with a high level of these cyclins. […] The expected accumulation of a slowly migrating form of cdk2, which is presumably not phosphorylated at Thr-160 (Polyak, loc. cit.), was found in the same precipitates (FIG. 2D). […]
as §2, with “4). The levels of p27Kip1 protein (C) were determined by Western blot in whole-cell extracts prepared from TCDD-treated cultures of AhR-expressing 5 L wild-type cells, their AhR-deficient BP8AhR-derivatives and BP8 cells which were expressing AhR ectopically (BP8AhR+) (Weiss, loc. cit.).” for “4).”

[4] = system: cyclin E-associated histone H1 kinase; assay: Cyclin E-dependent histone H1 kinase activity, immune complex kinase assay; assay type: cell-based, rat; settings: 5 L cells, 24-hour treatment, FIG. 2B
Procedure: as §1, §2

Kip1 mRNA = Kip1 mRNA by Northern blot in 5 L cells; assay type: cell-based, rat
[5] = system: p27Kip1 associated with cyclin E; assay: Immunocoprecipitation with anti-cyclin E antibody, Western blot of p27Kip1; assay type: cell-based, rat; settings: 5 L cells, immunocoprecipitation analysis, FIG. 2D
Procedure: as §1, §2

p27Kip1 [6] = assay: p27Kip1 protein by Western blot in foetal thymus organ culture thymocytes; assay type: cell-based, mice; settings: 2 days of FTOC, 1 nM, compared with solvent cultures
From the text: as §3, with “While the proliferation rate in all the early thymocyte subpopulations was reduced independently of the status of CD4 or CD8 expression (Table 1), the effect was more strongly pronounced in the predominantly immature, double negative subpopulation and in a small CD4low/+/CD8-subpopulation.” left out
as §4, with “Uniform loading of the gel was ensured by probing the blots once again with an Erk1 antibody (one of three representative examples is shown).” left out

5 L cells [7] = settings: non-electroporated cells (Weiss, loc. cit.); cited from earlier work
p18-Ink and p21-Cip1 = assay: Levels of other cdk inhibitors in 5 L cells; assay type: cell-based, rat
Procedure: After it had been found by introductory experiments that the effect of dioxin on the cell cycle required gene expression which was continuous and induced, experiments were carried out to investigate the Ah receptor-dependent, cell cycle-regulating genes by characterizing biochemical changes in the course of the cell cycle (Lees, E., Curr. Opin. Cell Biol. 7, 773 (1995); Morgan, D. O., Nature 374, 131 (1995). The levels of cyclins D and E, which are involved in the G1-S transition in the cell cycle, as well as their associated cyclin-dependent kinases (cdks 2 and 4), were not reduced by dioxin treatment (see FIG. 2A). The levels of cyclins D2 and D3 were even raised, presumably because the cells are frozen in a state which is per se associated with a high level of these cyclins. […] The expected accumulation of a slowly migrating form of cdk2, which is presumably not phosphorylated at Thr-160 (Polyak, loc. cit.), was found in the same precipitates (FIG. 2D). […] The rise in the level of the p27Kip1 protein was accompanied by a fourfold induction of Kip1 mRNA (FIG. 2E, lanes 1 and 2).

5 L cells [8] = assay: Cell cycle progress by Rb protein phosphorylation, Western blot, synchronised 5 L cells; assay type: cell-based, rat; settings: 1 nM, 2 h before analysis, 8 h after serum stimulation, FIG. 1
Procedure: 5 L cells were frozen in their growth by being fasted in serum-free medium for 24 h and synchronously released from the block in the cell cycle by the addition of serum. The progress in the cell cycle was monitored by Western blot analysis, by determining the accumulation of phosphorylated Rb protein (upper arrow) in relation to hypophosphorylated Rb protein (lower arrow) 8 h after stimulating with the serum. 2 h before the analysis, the cells were treated with 1 nM TCDD, the transcription inhibitor actinomycin D (5 μg/ml) or both these compounds. The culture conditions have been described previously (Weiss, C. et al. Exp. Cell Res. 226, 154 (1996)), and extracts were prepared by lysing the cells in denaturing SDS sample buffer.

In the case of Clc1cc2c(cc1Cl)Oc1cc(Cl)c(Cl)cc1O2 [TCDD], the “levels of cyclins D2 and D3” value [1] is reported as “even raised”, the “levels of cyclins D and E and associated cyclin-dependent kinases (cdks 2 and 4)” value [1] is reported as “not reduced” and the “relative number of cells in S/G2” value (5 L cells [2]; GFP with empty expression vector, transfected and non-transfected cells, 1 nM, 18 h) is reported as “reduced”. For the same molecule, the “TCDD effect on cell cycle distribution” value (5 L cells [2]; efficiently transfected subpopulation expressing Kip1 antisense RNA with GFP, 1 nM) was “interrupted”, the “observed effects on the cell cycle” value (5 L cells [2]; electroporated cells) was 1.5-2 fold and the “progress of the cell cycle” value (5 L cells [2]; non-transfected subpopulation of the Kip1 antisense culture, 1 nM) was “retarded”. The “incorporation of 3H-thymidine into the thymocyte DNA” value (thymocytes; 2 days of FTOC, 1 nM) was 75±7%, the “% in G2/S” value (thymocytes; CD4+/CD8+ thymocytes) was 35 ± 10% and the “% in G2/S” value (thymocytes; CD4+/CD8− thymocytes) was 24 ± 4%. The “% in G2/S” value (thymocytes; CD4−/CD8+ thymocytes) was 32 ± 6%, the “% in G2/S” value (thymocytes; CD4−/CD8− thymocytes) was 18 ± 2% and the “number of cells in the S and G2 phases of the cell cycle” value (thymocytes; total thymocyte population, 2 days of FTOC, 1 nM) was 24±1%. For the same molecule, the “level of p27Kip1 by Western blot” value (p27Kip1 [3]; 5 L wild-type cells, exposure from 4 to 72 hours, FIG. 2C) was “raised in every case”, the “upregulation of p27Kip1” value (p27Kip1 [3]; AhR-poor subclone of 5 L cells (BP8-AhR−)) was “not possible to observe dioxin-dependent upregulation” and the “induction of p27Kip1” value (p27Kip1 [3]; BP8 subclone with ectopic expression of the AhR (BP8-AhR+)) was “induction was restored”. The “cyclin E-associated histone H1 kinase activity” value [4] was “substantially reduced”, the “induction of Kip1 mRNA” value (Kip1 mRNA; 5 L cells, 4-hour exposure, FIG. 2E) was “fourfold” and the “breakdown of Kip1 mRNA” value (Kip1 mRNA; following interruption of transcription by actinomycin D) was “did not affect”. The “quantities of p27Kip1 associated with cyclin E” value [5] was “increased quantities”, the “induction of Kip1 protein in thymocytes” value (p27Kip1 [6]) was 3 fold and the “observed effects on the cell cycle” value (5 L cells [7]) was 3-4 fold. For the same molecule, the “p18-Ink and p21-Cip1 levels” value (p18-Ink and p21-Cip1) was “not noticeably altered” and the “progress of the cell cycle (phosphorylated versus hypophosphorylated Rb protein)” value (5 L cells [8]) was “transcription-dependent retardation”.
With C[C@@H]1C[C@@H]([C@H](O)CC2CC(=O)NC(=O)C2)C(=O)[C@@H](C)C1 [cycloheximide] the “effect on TCDD induction of Kip1 mRNA” value (Kip1 mRNA; 30-minute pretreatment, 20 μg/ml, then 4-hour TCDD) was “had no effect”.
